Reference: patent US20090075925A1, “Methods and Compositions Related to APOBEC-1 Expression” (priority 2006, published 2009)
Values joined by “and” are separate entries in the source; they are usually repeats but may differ in a detail not shown here. Identical values can stand only once. Like-named read-outs stand apart in the source and are kept apart here.

Experiments:
ACF64 = test: ACF phosphorylation in 32P-labeled McArdle cells; format: cell-based, rat; settings: 6 hour
Procedure: Numerous kinase inhibitors were evaluated but only those acting on Protein Kinase C affected editing activity. […] Cell extracts were immunoprecipitated with the ACF C-terminal specific antibody and analyzed by PAGE and autoradiography (FIG. 23). […] However, at and above the IC50 of PKC, phosphorylation of ACF64 was inhibited by 90% and 100%.

ACF [1] = test: ACF phosphorylation in 32P-labeled rat primary hepatocytes (ACF immunoprecipitation, autoradiography); format: cell-based
Procedure: In vivo phosphorylation of ACF. In vivo ^32P labeling was performed by intraperitoneal injection of rats with 12.5 mCi of orthophosphoric acid (10 mCi/ml ^32PO4; NEN, Boston, Mass.) buffered with 50 mM HEPES, pH 7.0 and 150 mM NaCl. After 4 hours, rats were sacrificed and hepatic cytoplasmic and nuclear extracts prepared. Primary hepatocyte cultures in 60 mm dishes were incubated in phosphate-free Minimum Essential Eagle Media (Sigma) containing 0.1 nM porcine insulin for 6 hours and subsequently in fresh media containing 10 nM insulin (equivalent to that seen in post-prandial serum) or 0.45% to 0.9% ethanol (AAPER Alcohol and Chemical Co., Shelbyville, Ky.) (Van Mater et al. (1998), Yang et al. (2000)) plus 2.0 mCi orthophosphoric acid. Cultures were labeled for 4 hours prior to extract preparation.
To evaluate the effect of phosphatase inhibition on ACF phosphorylation, cultures were pre-incubated for 2 hours with 470 nM cantharadin in phosphate-free Waymouth's media and subsequently supplemented with 0.5 mCi ^32pO4 and incubated for an additional 4 hours. Cultures were harvested and subcellular extracts prepared.
Immunological techniques. […] For immunoprecipitation analyses all radiolabeled extracts were adjusted to 5 mM MgCl2 and digested with 100 units of DNase I (Promega), RNase T1 (Roche, Ind.), and RNase A (Sigma) for 1 hour on ice to remove radiolabeled nucleic acid. Where applicable, extracts were incubated overnight with ACF CT antibody at 4° C. and subsequently reacted with Protein A-agarose (Oncogene Research Products, Boston, Mass.) pre-washed with 1×TBS/10 mM NaF. The immuno-absorbed material was washed 3 times with 1×TBS/10 mM NaF, 3 times with 1×TBS/1 M NaCl (Yang et al. (1997)) and lastly 3 times with 1×TBS. Immuno-absorbed material to be treated with alkaline phosphatase was washed with 50 mM Tris, pH 8.4, 1 mM MgCl2, 0.1 mM ZnCl2, 25% glycerol and then incubated with 5 U CIAP for 1 hour at 30° C. and then washed 6 times with 1×TBS. ACF-antibody complexes were eluted with 3 M sodium thiocyanate, acetone precipitated and analyzed by 10.5% SDS-PAGE followed by autoradiography and/or western blotting with ACF NT antibody. For ACF immunoprecipitation from gradient fractions an equal volume of pooled gradient fractions from sedimentation zones of interest were reacted with sub-saturating amounts of ACF CT antibody to ensure that the recovery of phospho-ACF was not simply a reflection of ACF abundance in each zone.
To evaluate this, cytoplasmic and nuclear extracts from radiolabeled primary hepatocyte cultures were sedimented through 10%-50% glycerol gradients. […] The ACF immunoprecipitates were resolved by SDS-PAGE, transferred to nitrocellulose, autoradiographed and subjected to phosphorimager scanning to detect and quantify radiolabeled proteins prior to immunoblotting with the ACF NT antibody.

PKC [2] = settings: cited from earlier work
apoB mRNA editing = tested on: apoB mRNA editing
Procedure: Protein phosphatase inhibitor studies. […] The compounds' effects on apoB mRNA editing were evaluated by RT-PCR and poisoned-primer extension analysis (Sowden et al. Rna 2:274-88 (1996)). The effect of 470 nM cantharidin on ACF subcellular distribution was investigated by treating primary hepatocyte cultures for 6 hours followed by nuclear and cytoplasmic extract preparation.
It was reasoned that if phosphorylation of ACF regulated editing activity, treatment of rat primary hepatocytes with phosphatase inhibitors might stimulate apoB mRNA editing activity. […] The experiments (n=4-6) were done over a number of months and therefore represent primary hepatocytes from several rats.
Editing activity was quantified from primary hepatocytes incubated with 10-100-times the EC50 of the various […] (Calbiochem).

PKA [3] = settings: cited from earlier work
PKA [4] = settings: cited from earlier work; remark: listed apart in the source
[5] = 10 mg/kg per day IP, 26 day period; cited from earlier work
PKC [6] = settings: cited from earlier work; remark: listed apart in the source
ACF [7] = test: hepatic ACF nuclear retention in lean and ob/ob mice after insulin challenge; format: in vivo, mouse; settings: 4 h following 1.5 IU insulin/kg BW
Procedure: The mice are insulin-resistant as evident in elevated blood glucose (180-220 mg/dl after fasting) and lack a significant response to challenge when injected with 1.5 IU of insulin/kg BW. It has been shown that apobec-1 gene expression and apoB mRNA editing is markedly stimulated by insulin (Sowden, M. P. et al. (2002); Funahashi, T. F. et al (1995); Phung, T. L. et al. Metabolism 45, 1056-1058 (1996); von Wronski, M. A. et al. Metabolism 47, 869-73 (1998)). As a further indicator of the insulin-resistant state of these animals, it is apparent that hepatic apoB mRNA editing is not stimulated compared to cogenic lean mice (FIG. 40). The results from three fed animals as lean, ob/ob and 4 h Insulin-treated ob/ob mice are shown. Editing was evaluated using the established poisoned-primer extension assay for quantifying edited apoB mRNA where % editing is calculated from PhosphorImager scans as the counts in the edited band, divided by the sum of the counts in the edited plus unedited bands X 100. The nuclear-cytoplasmic distribution of ACF was next assessed in lean and ob/ob mouse liver without or with insulin challenge (4 h following 1.5 IU insulin/kg BW). […] The fold-nuclear retention of total cellular ACF was calculated from these values and is provided at the bottom of the image.

NCCNS(=O)(=O)c1cccc2c(Cl)cccc12 [A3]
inhibition of ACF64 phosphorylation (ACF64; above the IC50 of PKC (120 μM)): 100% | decrease of ACF phosphorylation relative to untreated cells (ACF64; at the IC50 of PKA (4 μM)): 20% | inhibition of ACF64 phosphorylation (ACF64; at the IC50 of PKC (40 μM)): 90% | concentration at which ACF phosphorylation was inhibited (ACF [1]; 32Pi 500 μCi/ml, 6 hours): ≥ 40 µM | IC50 (PKC [2]): 47 µM | effect on editing in hepatocytes (apoB mRNA editing): stimulated | IC50 (PKA [3]): 4 µM

Nc1ncnc2c1nc(Sc1ccc(Cl)cc1)n2[C@@H]1O[C@@H]2COP(=O)(O)O[C@H]2[C@H]1O [8-cpt cAMP]
apoB mRNA editing, Mean (apoB mRNA editing; 2 μM): 61.2% | apoB mRNA editing, Mean (apoB mRNA editing; 20 μM): 59.3% | apoB mRNA editing, Mean (apoB mRNA editing; 200 μM): 59.6% | EC50 (PKA [4]): 2 µM

leptin: protein product of the ob gene, 16 kDa circulating hormone
decrease in weight at the conclusion of the study [5]: ~20%

CC(C)[C@H]1C(=O)N[C@H](CO)Cc2c[nH]c3cccc(c23)N1C [Indolactam V]
apoB mRNA editing, Mean (apoB mRNA editing; 12 μM): 92.47% | editing activity compared to solvent treated controls (from 65%) (apoB mRNA editing; 12 μM, SEM 4.8, n=2): 92% | apoB mRNA editing, Mean (apoB mRNA editing; 120 μM): 91.57% | effect on apoB mRNA editing (apoB mRNA editing; concentration not given): stimulated editing | EC50 (PKC [6]): 0.2 µM

insulin: porcine insulin (Sigma)
increase of phosphorylated ACF in nuclear 27S editosomes (ACF [1]; 10 nM insulin, 4 hours): 2.5 fold and 2 fold | editing in metabolic state of rat hepatocytes (model, basal ~65%) (apoB mRNA editing): ~80% | hepatic ACF nuclear retention, fold change (ACF [7]; lean mice): 4 fold | hepatic ACF nuclear retention, fold change (ACF [7]; ob/ob mice): 0.9 fold
